From patent US6664231B1, “Anti-fungal peptides” (priority 1993, dated 2003) come the findings set out here.

Data set [1] relates to C. albicans (CA-1, Strain SLU-1). Briefly: Radial diffusion assay. The class given is cell-based, Candida albicans. The following applies: pmoles of peptide added to well to achieve a 30 mm^2 zone, PROBIT analysis, crude or purified (P′) peptide. Summed up:
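Yeast at 1×10^6 CFU/mL in agarose underlayer (3% Sabouraud, 10 mM sodium phosphate pH 7.4); 2-fold peptide dilutions in D-PBS from ~1 mg/mL loaded into wells, 3 h at 37° C, then nutrient overlayer overnight. Value: pmol/well giving 30 mm^2 net clear zone, by PROBIT regression.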

The test system of data set [2] is C. albicans designated CA-1, Strain SLU-1. The following applies: designated CA-1, Strain SLU-1, 18 h. The method, then: In each broth assay screening procedure, a colony of C. albicans designated CA-1, Strain SLU-1 that was received from the laboratories of G. Matuschak and A. Lechner, St. Louis University Hospital, St. Louis, Mo., where the strain was maintained, was inoculated into a tube containing 5 mL Sabouraud Dextrose broth (2% dextrose, 1% neopeptone) and incubated overnight at 37° C. with shaking. The overnight culture was diluted 1:50 into 5 mL of fresh broth and incubated for 3 hours at 37° C. Organisms were pelleted by centrifugation in a Beckman J-6M centrifuge for 5 minutes at 3000 rpm (1500×g) and the pellets were resuspended in 5 mL phosphate buffered saline (PBS) and the optical density at 570 nm was determined. On the basis of the determination that one OD unit equals 3×10^7 colony forming units/mL, yeast cells were diluted to 2×10^6 cells/mL in Sabouraud Dextrose broth.
Domain III peptides derived from or based on BPI to be screened were originally constituted in Dulbecco's-PBS, were diluted to 100 μg/mL in broth and were serially diluted 2-fold into wells of a 96 well sterile, flat bottom, non-pyrogenic tissue culture plate (Costar, Cambridge, Mass.). All assays were performed in triplicate. 2×10^5 organisms were added at 100 μl per well; final volume was 200 μL/well; the plate was incubated on a shaker at 37° C. for 18 hours; and the optical densities for each well were read at 590 nm. […] The broth assay data may be set out in terms of minimum inhibitory concentration (MIC), i.e. the lowest concentration required to reduce the optical density at 590 nm to below 0.1.

A further data set is described as follows: in vitro. The class given is in vitro ADME, rat or human serum. The following applies: half-life of peptide in serum as detected by HPLC analysis. The method, then: (§1) For these serum stability experiments, peptides were prepared by solid phase peptide sythesis and purified to 94% or greater purity as described in Example 1. Blood was collected from metaphane anesthesized rats by aortic bleed into Vacutainer™ tubes and allowed to clot at room temperature for approximately 30 minutes, then centrifuged at 3000 rpm (about 1000×g) for 10 minutes at room temperature and the serum aspirated. In addition, frozen human serum (North American Biologics, Inc., Miami, Fla., cat. no. 2140, lot no. 94115) was thawed at room temperature and filtered through a 0.45 μm membrane before use.
(§2) A 1 mg/mL solution of an exemplary XMP peptide to be tested was added to an equal volume of either rat or human serum described above and maintained at 37° C. At 0, 1, 2, and 4 hours, 100 μL were removed and processed by solid phase extraction for HPLC analysis as follows. Serum samples were prepared for HPLC using C-18 Sep-Pak cartridges (1 mL cartridge with 100 mg of sorbent, Waters Corp., Milford, Mass.). One hundred μL of serum sample were added to an equal volume of 1% TFA and mixed for 30 seconds on a Vortex mixer. The sample was then applied to a C-18 Sep-Pak cartridge that had been conditioned by washing with 1 mL of methanol followed by 1 mL Milli-Q water. Weakly reed components were eluted by washing with 1 mL of 0. 1% TFA. The bound peptide was eluted with two volumes of 250 μL 80% acetonitrile/0.065% TFA.
The material eluted from the Sep-Pak cartridge was analyzed on a Michrom Ultaafast Microprotein Analyzer equipped with a 150 mm×1 mm, 5μ particle, 300 Å pore C-8 Zorbax column. The column oven was set to 40° C., the flow rate was 100 μL/minute, and injection volumes were typically 5-10 μL. HPLC was performed using 5% acetonitrile/0.1% TFA in water as mobile phase A, and 80% acetonitrile/0.065% TFA as mobile phase B. The eluate was monitored spectiophotometrically at 214 nm. Peptide standards were dissolved in mobile phase A at 0. 1 mg/mL. The gradient was 25-35% B/10 minutes followed by a 5 minute wash step of 100% B and reequilibration at 25% B for 10 minutes.

In data set [3] the test system is Candida albicans SLU-1 strain. In words: Serum stability, anti-fungal activity after serum incubation by radial diffusion bioassay. The class given is in vitro ADME, rat or human serum. The protocol: as §1, §2
(§3) The peptides identified and purified after serum incubation as described above were subjected to N-terminal peptide sequencing performed on an Applied Biosystems Model 477A/120A sequencer and to electrospray ionization mass spectrometry (ESI/MS) performed using a VG Biotech Bio-Q Mass Spectrometer. In addition, the peptides identified and purified after serum incubation as described above were also tested for their anti-fungal activity in a radial diffusion bioassay with Candida albicans SLU-1 strain as described in Example 2.

The test system of data set [4] is Candida albicans SLU-2G amphotericin B-resistant strain. In words: Radial diffusion assay (Example 3), amphotericin B-resistant strain. The class given is cell-based. The following applies: FIG. 2B. The protocol: Domain III derived peptides were tested for their fungicidal activity on amphotericin resistant Candida. Resistant colonies of Candida were isolated using a gradient plate technique. A slanted Sabouraud dextrose agar plate was poured and allowed to harden. The plate was made level and additional agar supplemented with nystatin (Sigma, St. Louis, Mo., cat. no. N-3503) at a concentration of 10 μg/mL was poured. Cells from the CA-1 colony of Candida albicans SLU-1 strain described in Example 2 (10^7 cells in a volume of 100 μL) were spread over the plate and incubated at […] overnight.
(§4) For the radial diffusion assays, Candida albicans SLU-1 were grown as described above and SLU-2G were grown overnight in Sabouraud dextrose broth supplemented with 10 μg/mL amphotericin B and 5 μg/mL ceftriaxone at 37° C. Cultures were diluted 1:25 into fresh, unsupplemented broth and allowed to grow for 5 hours at 37° C. Cells were pelleted at 1,500×g for 5 minutes at 4° C. Supernatant was decanted and replaced with 5 mL of 10 mM phosphate buffer, pH 7.4. After centrifugation the cell pellets were resuspended with 5 mL phosphate buffer for an OD570 determination.
(§5) Cells were added to 10 mL of molten, cooled (˜45° C.) underlayer agarose to a concentration of 1×10^6/mL and the suspension was poured into a level square petri plate with gentle rocking to allow even distribution and solidification to a uniform thickness of about 1 mm. Wells were cut into the hardened agarose with a sterilize, 3 mm diameter punch with vacuum.
Peptides were two-fold serially diluted with DPBS from a starting concentration of approximately 1 mg/mL. […] Five μL were added per well and allowed to diffuse at 37° C. for 1.5-2.0 hours. Then 10 mL of molten overlayer agarose were added and the plates were incubated inverted at 37° C. overnight. Plates were stained with a dilute Coomassie solution, inhibition zones were measured with calipers and net areas were calculated, then converted to pmol values by PROBIT analysis.

The next data set has as its system Candida albicans SLU-1. Briefly: Radial diffusion assay (Example 3), wild type strain. To be noted: FIG. 2A. The class given is cell-based. The method, then: as §4, with “determination. One OD570 for SLU-1 cells was 3×10^7 CFU/mL and for SLU-2G cells was 5×10^6 CFU/mL.” for “determination.”
as §5
Peptides were two-fold serially diluted with DPBS from a starting concentration of approximately 1 mg/mL. Amphotericin B and nystatin were similarly diluted starting at 100 and 225 μg/mL, respectively. Five μL were added per well and allowed to diffuse at 37° C. for 1.5-2.0 hours. Then 10 mL of molten overlayer agarose were added and the plates were incubated inverted at 37° C. overnight. Plates were stained with a dilute Coomassie solution, inhibition zones were measured with calipers and net areas were calculated, then converted to pmol values by PROBIT analysis. The results of a representative experiment are shown in FIG. 2A for the SLU-1 strain and FIG. 2B for the SLU-2G strain. In FIGS. 2A and 2B, the fungicidal activity is represented for XMP.13 as open circles; for XMP.37 as closed circles; for XMP.97 as open triangles; for XMP.127 as closed triangles; for amphotericin B as open squares; and for nystatin as closed squares. The pmol for a 30 mm^2 zone of inhibition were calculated to be: for XMP.13, 689 pmol against SLU-1 and 129 pmol against SLU-2G; for XMP.37, 231 pmol against SLU-1 and 75 pmol against SLU-2G; for XMP.97, 670 pmol against SLU-1 and 161 pmol against SLU-2G; for XMP.127, 935 pmol against SLU-1 and 116 pmol against SLU-2G; for amphotericin B, 36 pmol against SLU-1 and >541 pmol for SLU-2G; and for nysttin, 98 pmol against SLU-1 and >1,215 pmol against SLU-2G.

A short description of data set [5]: Serum stability, anti-fungal activity after serum incubation by radial diffusion bioassay. In kind it is in vitro ADME, rat or human serum. To be noted: Activity in Serum t ½ (hr.). The protocol:
as §1, §2, §3

≈ marks a conversion by molar mass, not a printed value. Square brackets hold non-standard residues; d marks the D form. Peptide text beside a SMILES is read from it. 1Nal = N[C@@H](Cc1cccc2ccccc12)C(=O)O

As to `CC[C@H](C)[C@H](NC(=O)[C@H](CC(C)C)NC(=O)[C@H](Cc1c[nH]c2ccccc12)NC(=O)CNC(=O)[C@@H](NC(=O)[C@H](CCCCN)NC(=O)[C@H](CO)NC(=O)[C@@H](N)CCCCN)C(C)C)C(=O)N[C@@H](CCC(N)=O)C(=O)N[C@@H](Cc1cccc2ccccc12)C(=O)N[C@@H](Cc1ccccc1)C(=O)N[C@@H](Cc1c[nH]cn1)C(=O)N[C@@H](CCCCN)C(=O)N[C@@H](CCCCN)C(N)=O` [XMP.143] (H-KSKVGWLIQ[1Nal]FHKK-NH2), the “C. albicans pmol/30 mm^2 zone” value in data set [1] was >2839 pmol/30 mm^2 zone. Also, the “minimum inhibitory concentration (MIC), lowest concentration required to reduce the optical density at 590 nm to below 0.1” value in data set [2] was 25.0 µg/mL (≈ 13.9 µM).

For H-KSKVKFLIQLFHKK-NH2 [XMP.138], the “C. albicans pmol/30 mm^2 zone” value in data set [1] came out at 257 pmol/30 mm^2 zone. The “minimum inhibitory concentration (MIC), lowest concentration required to reduce the optical density at 590 nm to below 0.1” value in data set [2] stood at 3.13 µg/mL.

In the case of H-KSKVGWLIQWFHKK-NH2 [XMP.142], the “C. albicans pmol/30 mm^2 zone” value in data set [1] turned out to be 1244 pmol/30 mm^2 zone. Further, the “minimum inhibitory concentration (MIC), lowest concentration required to reduce the optical density at 590 nm to below 0.1” value in data set [2] turned out to be 12.5 µg/mL.

Consider `CC[C@H](C)[C@H](NC(=O)[C@H](CC(C)C)NC(=O)[C@@H](Cc1c[nH]c2ccccc12)NC(=O)[C@H](N)CCCCN)C(=O)N[C@@H](CCC(N)=O)C(=O)N[C@@H](CC(C)C)C(=O)N[C@@H](Cc1ccccc1)C(=O)N[C@@H](Cc1c[nH]cn1)C(=O)N[C@H](CCCCN)C(=O)N[C@H](CCCCN)C(N)=O` [XMP.363], for which, in the data set “in vitro” (serum, read-out: HPLC Peptide in Serum t ½ (converted)), the half-life at 0.5 mg/mL is 11.8 h. Also, the figures for the “C. albicans pmol/30 mm^2 zone” value in data set [1] and in data set [1] (listed as XMP.363P′) were 1,015 pmol/30 mm^2 zone and 741 pmol/30 mm^2 zone, respectively. Besides, the “Activity in Serum t ½ (hr.)” value in data set [3] is “indefinite”.

As for `C[C@@H]1[C@H](O)[C@@H](C)/C=C/C=C/CC/C=C/C=C/C=C/C=C/C(O[C@H]2O[C@H](C)[C@@H](O)[C@H](N)[C@@H]2O)CC2O[C@](O)(CC(O)C(O)CCC(O)CC(O)CC(O)CC(=O)O[C@H]1C)CC(O)C2C(=O)O` (stereo partly drawn) [nystatin, reference compound], the “pmol for a 30 mm^2 zone of inhibition against SLU-2G” value in data set [4] is given as > 1,215 pmol. Further, in the data set on Candida albicans SLU-1, the “pmol for a 30 mm^2 zone of inhibition against SLU-1” value worked out at 98 pmol.

For H-KSKVGYLIQLFHKK-NH2 [XMP.139], in data set [1], the “C. albicans pmol/30 mm^2 zone” value was 323 pmol/30 mm^2 zone. Besides, the “minimum inhibitory concentration (MIC), lowest concentration required to reduce the optical density at 590 nm to below 0.1” value in data set [2] is 6.25 µg/mL. The compound also had a half-life at 0.5 mg/mL in data set [5] of 10.6 h.

On to `CC[C@@H](C)[C@@H](NC(=O)[C@@H](CCC(N)=O)NC(=O)[C@@H](CC(C)C)NC(=O)[C@@H](CCCCN)NC(=O)[C@H](N)CCCCN)C(=O)N[C@H](C)C(=O)N[C@H](Cc1c[nH]c2ccccc12)C(=O)N[C@H](CCCCN)C(=O)N[C@H](CCCCN)C(N)=O` [XMP.376] (H-[dK][dK][dL][dQ][dI][dA][dW][dK][dK]-NH2), for which the “HPLC Peptide in Serum t ½ (hr.)” value in the data set “in vitro” is “indefinite”. The “C. albicans pmol/30 mm^2 zone” value in data set [1] was found to be 138 pmol/30 mm^2 zone. In data set [3], the “Activity in Serum t ½ (hr.)” value is recorded as “indefinite”.
